Assay results: US11517630B2, “Methods and compositions for regulating gene expression” (Children's Medical Center Corporation, priority 2005, dated 2022)

Tests used:
[1] = tested on: mutant (TGA-containing) Apo CII-luc fusion reporter in FG293 cells; assay: In vitro luciferase assay: suppression of translational termination in FG293 cells transduced with mutant Apo CII-luc lentiviral vector; format: cell-based, human; conditions: for fold of induction: 5 μg/ml; for ability to induce luciferase expression (suppression of translation termination codons): 0 to 1000 μg/ml, mutant luc fusion; for % of wild-type luc activity: 200 μg/ml
Description: FG 293 cells were infected with viral supernatants at a multiplicity of infection (MOI) of 10. After 72 hours, cells were then split into six well plates, exposed to various concentrations of G1418 for 48 hours, and lysed. Protein extracts were then assayed for luciferase expression using the Promega Luciferase Assay System.
(§1) To facilitate quantitative measurement of both spontaneous read-through of specific termination codon configurations and the ability of specific antibiotics to suppress translational termination, a luciferase (luc) reporter gene was generated in which the first five codons of either WT mutant MIA-containing) Apo CII sequences were fused to luc coding sequences, and the resulting sequences were introduced into a standard lentiviral vector (FIG. 1B). High-titer virus generated from the vectors was used to infect human FG293 cells at a multiplicity of infection (MOI) of 10, so that virtually 100% of the cells would be stably transduced. Cells were then split into six well plates, exposed to varying concentrations of the aminoglycoside (G418) for 48 hours, and then lysed and assayed for luc expression. […] In contrast, cells transduced by vectors encoding the mutant Apo CII-luc expressed only low levels of luc in the absence of G418 (approximately 1.2% the activity of the wild type), but could be induced to strongly express luc by the addition of the antibiotic (FIG. 2B). […] The efficiency of suppression of translational termination was extremely high (over 70% of the level of wild-type reporter expression observed in the absence of the nonsense codon).
as §1, with “(TGA-containing)” for “MIA-containing)”
One of the expected characteristics of the gene regulation system described here is the ability to rapidly achieve induction of transgene expression, since (as indicated above) transcription is constitutive and therefore induction of gene expression should depend only upon the restoration of fall translation of the transgene coding sequences. To address this issue, we employed the transduced cells described above, and measured the level of reporter activity after G418 administration (200 μg/ml) as a function of time.
Compounds were tested in vitro using stable cell lines generated via the infection of FG293 cells with lentiviral vectors carrying either WT or mutant Apo CII luc sequences. The aminoglycosides were tested over a concentration range from 0 to 1000 μg/ml.

[2] = mice; cited from earlier work
[3] = tested on: mutant Apo CII-luc in murine lung tissue; assay: In vivo luc induction in murine lung after intratracheal delivery of lentiviral vector, bioluminescent imaging; conditions: 1.5 mg daily, 4 days, average of five mice
Description: For intratracheal infections, nude mice were anaesthesized and then 100 μl of concentrated virus was delivered upon normal inhalation via a blunt-ended 16-gauge needle inserted in such a way to depress the tongue.
(§2) Prior to imaging, mice were anaesthesized and injected with 150 μl luciferin (30 mg/ml) (Xenagen, Alameda, Calif.). A series of bioluminescent images were then taken for up to 30 minutes using the Xenogen IVIS imager. Photon output was quantified at the plateau of the time-course using the Living Image software. Induction in fold was calculated based on the photon output in the animals before and after drug treatment.
To further establish the general applicability of the gene […] system, we next asked whether gene regulation at the level of translation could be readily accomplished in the in vivo setting. In a first animal model, intratracheal delivery (see Materials and Methods) of a lentiviral vector carrying WT or mutant Apo CII-luc sequences was utilized in order to assess the ability to regulate luc expression in murine lung tissue via aminoglycoside administration. Five days post transduction, prior to administration of aminoglycoside, mice were imaged for luc expression using the Xenogen IVIS non-invasive bioluminescent imager (29). […]

[4] = tested on: mutant Apo CII-luc in hematopoietic cells; assay: In vivo luc induction in murine bone marrow transplantation model (transduced hematopoietic stem cells); set-up: species or system mice; conditions: 1.5 mg/day for 3.5 days, four mutant luc animals
Description: Purified HSC were obtained by isolating bone marrow SP cells using fluorescence activated cell sorting after Hoechst staining as previously described (10), with some modifications. Briefly, femurs and tibias from mice were homogenized, and the bone marrow cells were filtered through 70 μm nylon mesh and washed in PBS containing 2% FCS and 0.5% Sodium Azide. Cells were then resuspended in HBSS containing 2% FCS, 10 mM Hepes buffer and antibiotics (all from Gibco, Grand Island, N.Y.) and 8.8 μg/ml Hoechst 33342 (Molecular Probes, Eugene, Oreg.) at a cell concentration of 5×10^6/ml. Following incubation for 90 min at 37° C., cells were washed once and further purified by using a gradient of Ficoll-Paque™ Plus (Amersham Biosciences AB, Uppsala) to remove red blood cells. Purified marrow cells were then sorted using a MoFlo high speed cell sorter (DakoCytomation, Fort Collins, Col.). Except when specified, cells were kept on ice during the entire procedure. […]
as §2, with “A series of bioluminescent images were then taken for up to 30 minutes using the Xenogen IVIS imager.” left out, “treatment. […]” for “treatment.”

[5] = Acute toxicity at concentrations used to regulate gene expression in cell lines and animals
Source text: Overall, the system described here represents a remarkably simple means of controlling the expression of genes in mammalian cells that should have immediate experimental applications. While the range of inducibility obtainable with the system (in some cases over 60 fold) is considerably more limited than that of gone regulation systems based on the control of transcription or RNA self-cleavage, the ability to fine-tune the basal and induced levels of gene expression via use of specific termination codons and adjacent sequences may mitigate this limitation in many experimental situations. […] Similarly, others have shown that G418 can be used at relatively non-toxic doses to suppress nonsense mutations in cell lines and in animal models of inherited disease (25, 35). […] The availability of such molecules for experimental studies in the future should further expand the utility of translation-based gene regulation strategies.

CC(C)(C)c1ccc(OCC(=O)Nc2cccc(C(=O)O)c2)cc1 [3-[2-(4-tert-butyl-phenoxyl)-acetylamino]-benzoic acid]
fold of induction ([1]; FG293 cells): about 14%

CCC(C)(C)c1ccc(OCC(=O)Nc2cccc(C(=O)O)c2)cc1 [3-{2-[4-(1,1-dimethyl-propyl)-phenoxyl]acetylamino}-benzoic acid]
fold of induction ([1]; FG293 cells): about 24%

NCC[C@H](O)C(=O)N[C@@H]1C[C@H](N)[C@@H](O[C@H]2O[C@H](CN)[C@@H](O)[C@H](O)[C@H]2O)[C@H](O)[C@H]1O[C@H]1O[C@H](CO)[C@@H](O)[C@H](N)[C@H]1O [amakacin]
ability to induce luciferase expression (suppression of translation termination codons) ([1]; 48 hours, FG293 cells): only weak induction

gentamicin
ability to induce luciferase expression (suppression of translation termination codons) ([1]; 48 hours, FG293 cells): only weak induction

NC[C@H]1O[C@H](O[C@H]2[C@H](O)[C@@H](O[C@H]3O[C@H](CO)[C@@H](O)[C@H](N)[C@H]3O)[C@H](N)C[C@@H]2N)[C@H](N)C[C@@H]1O [tobramycin]
ability to induce luciferase expression (suppression of translation termination codons) ([1]; 48 hours, FG293 cells): only weak induction

gentamycin sulfate
effective dosage [2]: 17 mg/kg

CN[C@@H]1[C@@H](O)[C@@H](O[C@@H]2[C@@H](O)[C@H](O[C@H]3O[C@H]([C@@H](C)O)[C@@H](O)[C@H](O)[C@H]3N)[C@@H](N)C[C@H]2N)OC[C@]1(C)O [G418]
% of wild-type luc activity ([1]; 1 hour post induction): 1.4%
% of wild-type luc activity ([1]; 6 hours post induction): 6.1%
% of wild-type luc activity ([1]; 12 hours post induction): 25.3%
% of wild-type luc activity ([1]; 24 hours post induction): 38.1%
% of wild-type luc activity ([1]; 48 hours post exposure): 51.3%
efficiency of suppression of translational termination, % of wild-type reporter expression ([1]; 300 μg/ml, 48 hours, FG293 cells): over 70%
increase in reporter (luc) expression relative to the uninduced state, maximum induction ([1]; 300 μg/ml, 48 hours, FG293 cells, mutant Apo CII-luc): approximately 60 fold
fold induction at 200 µg/mL ([1]; Homo sapiens, 48 h, read-out: fold induction of luc (maximal induction)): 60
luciferase expression, % of level in WT luc mice [3]: 27%
induced level, % of expression in WT luc mice [4]: ~51%
fold induction at 1.5 mg ([4]; Mus musculus, Hematopoietic stem cell, 84 h, read-out: average fold induction of luc expression): 65
acute toxicity at concentrations used [5]: not acutely toxic

NC[C@@H]1O[C@H](O[C@H]2[C@@H](O)[C@H](O[C@@H]3[C@@H](O)[C@H](N)C[C@H](N)[C@H]3O[C@H]3O[C@H](CO)[C@@H](O)[C@H](O)[C@H]3N)O[C@@H]2CO)[C@H](N)[C@@H](O)[C@@H]1O [paromomycin]
ability to induce luciferase expression (suppression of translation termination codons) ([1]; 48 hours, FG293 cells): only weak induction
